Assay results from ChEMBL document CHEMBL1137609, “Low-calcemic, highly antiproliferative, 23-oxa ether analogs of the natural hormone 1 alpha,25-dihydroxyvitamin D3: design, synthesis, and preliminary biological evaluation” (J Med Chem, 2007).
Activity calls are given as the source filed them. No cut-off for these calls is given here.

Assays:
Mus musculus [1] = assay: Induction of CYP24 mRNA transcriptional activity in C57BL/6 mouse duodenum at 25 ug/kg, ip after 4 hrs; type: functional, organism-based
Mus musculus [2] = assay: Induction of TRPV6 mRNA transcriptional activity in C57BL/6 mouse duodenum at 25 ug/kg, ip after 4 hrs; type: functional, organism-based
[3] = Lipophilicity, log D of the compound; type: physicochemical; settings: octanol/water
Mus musculus [4] = assay: Induction of TRPV6 mRNA transcriptional activity in C57BL/6 mouse duodenum at 3 ug/kg, ip after 4 hrs; type: functional, organism-based
Mus musculus [5] = assay: Induction of CYP24 mRNA transcriptional activity in C57BL/6 mouse duodenum at 3 ug/kg, ip after 4 hrs; type: functional, organism-based

| SMILES | logD [3] | also measured |
| --- | --- | --- |
| C=C1/C(=C\C=C2/CCC[C@]3(C)[C@@H]([C@H](C)COCC(=C)C(C)(C)C)CC[C@@H]23)C[C@@H](O)C[C@@H]1O | 4.7 | Activity (Mus musculus [1]): Active; Activity (Mus musculus [2]): Active |
| C=C1/C(=C\C=C2/CCC[C@]3(C)[C@@H]([C@H](C)COCc4ccco4)CC[C@@H]23)C[C@@H](O)C[C@@H]1O | 3.3 |  |
| C=C1/C(=C\C=C2/CCC[C@]3(C)[C@@H]([C@H](C)COCC#CC(C)(C)C)CC[C@@H]23)C[C@@H](O)C[C@@H]1O | 4.6 |  |
| C=C1/C(=C\C=C2/CCC[C@]3(C)[C@@H]([C@H](C)COC/C=C/C(C)(C)C)CC[C@@H]23)C[C@@H](O)C[C@@H]1O | 4.9 |  |
| C=C1/C(=C\C=C2/CCC[C@]3(C)[C@@H]([C@H](C)CCCC(C)(C)O)CC[C@@H]23)C[C@@H](O)C[C@@H]1O [CALCITRIOL] | 3.6 | Activity (Mus musculus [4]): Active; Activity (Mus musculus [5]): Active |
| C=C1/C(=C\C=C2/CCC[C@]3(C)[C@@H]([C@H](C)COCC(=C)C4(C)CCCCC4)CC[C@@H]23)C[C@@H](O)C[C@@H]1O | 5.3 |  |
| C=C(COC[C@@H](C)[C@H]1CC[C@H]2/C(=C/C=C3/C[C@@H](O)C[C@H](O)C3=C)CCC[C@]12C)C1=CCCCC1(C)C | 4.9 | Activity (Mus musculus [1]): Active; Activity (Mus musculus [2]): Active |
| C=C1/C(=C\C=C2/CCC[C@]3(C)[C@@H]([C@H](C)COCc4ccccc4)CC[C@@H]23)C[C@@H](O)C[C@@H]1O | 4.4 |  |
| C=C(COC[C@@H](C)[C@H]1CC[C@H]2/C(=C/C=C3/C[C@@H](O)C[C@H](O)C3=C)CCC[C@]12C)c1ccccc1 | 5.1 |  |
